Laboratory results published in article PMC10343724, “Evaluation of Antimicrobial, Anticholinesterase Potential of Indole Derivatives and Unexpectedly Synthesized Novel Benzodiazine: Characterization, DFT and Hirshfeld Charge Analysis” (Molecules, 2023).

How the values were obtained:
[1] = tested on: antibiotic-resistant strains of Staphylococcus aureus; test: Disc diffusion assay, antibacterial activity; assay type: cell-based; settings: clinically isolated antibiotic-resistant S. aureus
Procedure: (§1) Disc diffusion assay was performed to evaluate the antibacterial potential of compounds (8, 9, 10 and 12) against antibiotic-resistant strains of Salmonella Typhi and Staphylococcus aureus. […] Heterocyclic compounds are well-known for their antibacterial potential. A series of Benzoxazepine derivatives have shown promising antibacterial activities against Staphylococcus sciuri (zone of inhibition as 8–21 mm) and E. coli (zone of inhibition as 8–14 mm). Isoxazolyl benzo [1, 4]diazepine-5-ones have shown antibacterial against both G + ve (B. subtilis, B. sphaericus, S.aureus) and G-ve bacteria (P. aeruginosa, K. aerogenes, C. violaceum).
(§2) Antibacterial activity was assessed against clinically isolated, antibiotic-resistant strains of Salmonella typhi and Staphylococcus aureus using Disk diffusion assay, as previously described. Anticholinesterase activity was also performed, as described earlier for indoles.

[2] = Solubility behaviour in the anticholinesterase reaction mixture; assay type: physicochemical; settings: anticholinesterase assay reaction mixture
Source text: (§3) Azine derivatives, benzoxazepines and benzodiazepines show various biological activities, including antibacterial, antifungal, and anticholinesterase activities. This makes benzo-diazine an excellent candidate for exploration of its potential for cholinesterase inhibition and antimicrobial activities.

acetylcholinesterase = acetylcholinesterase (Homo sapiens, UniProt P22303); test: biochemical; settings: apparent value; due to solubility issues the IC50 values can be far less; read-out: IC50, acetylcholinesterase inhibition
Procedure: as §3, §2

[3] = tested on: antibiotic-resistant strains of Salmonella Typhi; test: Disc diffusion assay, antibacterial activity; assay type: cell-based; settings: clinically isolated antibiotic-resistant S. Typhi
Procedure: as §1, §2

Sequence of acetylcholinesterase (P22303 32-614): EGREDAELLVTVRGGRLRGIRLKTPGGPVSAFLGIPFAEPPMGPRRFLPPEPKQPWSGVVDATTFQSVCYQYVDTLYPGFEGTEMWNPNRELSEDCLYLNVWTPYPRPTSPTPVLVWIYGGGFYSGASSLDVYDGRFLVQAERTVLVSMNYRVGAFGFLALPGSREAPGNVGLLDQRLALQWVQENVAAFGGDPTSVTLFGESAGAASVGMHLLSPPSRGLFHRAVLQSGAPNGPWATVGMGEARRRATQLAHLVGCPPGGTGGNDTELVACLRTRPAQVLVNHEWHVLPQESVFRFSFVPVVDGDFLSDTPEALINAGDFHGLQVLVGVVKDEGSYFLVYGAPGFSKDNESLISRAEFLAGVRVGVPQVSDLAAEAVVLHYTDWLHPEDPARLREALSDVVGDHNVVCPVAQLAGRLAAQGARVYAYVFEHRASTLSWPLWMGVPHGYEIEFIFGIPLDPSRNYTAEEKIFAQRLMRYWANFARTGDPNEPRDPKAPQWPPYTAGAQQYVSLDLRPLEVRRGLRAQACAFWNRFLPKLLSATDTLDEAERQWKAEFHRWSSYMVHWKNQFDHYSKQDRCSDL

Question: Which results are given for `COc1cc(OC)c2c(-c3ccccc3)c(-c3ccccc3)[nH]c2c1C(=O)O` [Compound 9, 4,6-Dimethoxy-2,3-Diphenylindole-7-Carboxylic Acid]?
Answer: zone of inhibition (ZOI) [1]: ~21 mm; precipitation in the reaction mixture [2]: precipitated even at lower concentrations

Question: For `COc1cc(OC)c2c(-c3ccccc3)c(-c3ccccc3)[nH]c2c1C(=O)C(Cl)(Cl)Cl` [Compound 8, 7-Trichloro-acetyl-4,6-Dimethoxy-2,3-Diphenyl-1H-Indole], which IC50 (acetylcholinesterase) is on record?
Answer: 7.31 µM

Question: And the “zone of inhibition (ZOI)” value [1]?
Answer: ~ 18 mm

Question: Which results are given for `COC(=O)C(C)Oc1nc(-c2ccccc2)nc2c(C(=O)c3ccccc3)c(OC)cc(OC)c12` (stereo not drawn) [Compound 12, 8-Benzoyl-5,7-Dimethoxy-4-(1‴-Methyoxycarbonylethoxy)-2-Phenyl-1,3-Benzodiazine]?
Answer: IC50 (acetylcholinesterase): 6.11 µM; zone of inhibition (ZOI) [3]: ~ 13 mm; zone of inhibition (ZOI) [1]: ~20 mm; precipitation in the reaction mixture [2]: precipitated even at lower concentrations

Question: For `COc1cc(OC)c2c(-c3ccccc3)c(-c3ccccc3)[nH]c2c1C(N)=O` [Compound 10, 4,6-Dimethoxy-2,3-Diphenyl-1H-Indole-7-Carboxamide], which “zone of inhibition (ZOI)” value [1] is on record?
Answer: ~17 mm
